Test results from patent publication US10376481B2, “Compounds and methods for inhibiting NHE-mediated antiport in the treatment of disorders associated with fluid retention or salt overload and gastrointestinal tract disorders” (ARDELYX, INC, priority 2012, dated 2019).

Target: T1, human NHE3 (Homo sapiens, UniProt P48764)
T1 sequence (P48764 26-834): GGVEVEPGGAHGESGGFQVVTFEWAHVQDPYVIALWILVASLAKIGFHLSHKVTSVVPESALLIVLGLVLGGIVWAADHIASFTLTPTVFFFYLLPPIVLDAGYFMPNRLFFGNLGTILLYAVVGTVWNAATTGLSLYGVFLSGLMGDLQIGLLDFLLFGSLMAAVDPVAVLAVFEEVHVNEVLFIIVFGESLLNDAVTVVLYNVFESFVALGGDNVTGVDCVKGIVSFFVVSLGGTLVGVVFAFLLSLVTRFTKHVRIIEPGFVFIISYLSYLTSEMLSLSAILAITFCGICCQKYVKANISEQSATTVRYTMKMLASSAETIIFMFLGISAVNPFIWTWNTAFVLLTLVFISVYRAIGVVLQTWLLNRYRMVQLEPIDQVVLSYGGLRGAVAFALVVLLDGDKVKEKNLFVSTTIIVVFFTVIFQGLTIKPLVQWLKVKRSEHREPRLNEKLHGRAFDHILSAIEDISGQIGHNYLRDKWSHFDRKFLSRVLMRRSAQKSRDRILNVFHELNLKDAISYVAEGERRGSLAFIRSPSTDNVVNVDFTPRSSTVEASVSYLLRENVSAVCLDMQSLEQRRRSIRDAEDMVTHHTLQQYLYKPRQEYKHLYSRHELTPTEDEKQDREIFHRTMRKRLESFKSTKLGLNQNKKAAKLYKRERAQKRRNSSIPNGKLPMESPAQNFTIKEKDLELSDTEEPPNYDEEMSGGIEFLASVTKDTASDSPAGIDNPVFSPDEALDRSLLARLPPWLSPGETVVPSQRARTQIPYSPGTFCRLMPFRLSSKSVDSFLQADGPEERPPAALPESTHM
Experiment: Cell-based assay of NHE-3 activity (human NHE3 inhibition assay)
Parameters: expressed in transfected cells; host or cells: Opossum kidney (OK) cells (ATCC), electroporated
Conditions: OK cells with human NHE-3 gene, BCECF pH recovery, 0-30 μM test compound; for IC50: read-out: Human NHE3 pIC50 (converted)
Description: Rat or human NHE-3-mediated Na^+-dependent H^+ antiport was measured using a modification of the pH sensitive dye method originally reported by Paradiso (Proc. Natl. Acad. Sci. USA. (1984) 81(23): 7436-7440). Opossum kidney (OK) cells were obtained from the ATCC and propagated per their instructions. The rat NHE-3 gene (GenBank M85300) or the human NHE-3 gene (GenBank NM_004174.1) was introduced into OK cells via electroporation, and cells were seeded into 96 well plates and grown overnight. Medium was aspirated from the wells, cells were washed twice with NaCl-HEPES buffer (100 mM NaCl, 50 mM HEPES, 10 mM glucose, 5 mM KCl, 2 mM CaCl2, 1 mM MgCl2, pH 7.4), then incubated for 30 min at room temperature with NH4Cl-HEPES buffer (20 mM NH4Cl, 80 mM NaCl, 50 mM HEPES, 5 mM KCl, 2 mM CaCl2, 1 mM MgCl2, pH 7.4) containing 5 μM bis(acetoxymethyl) 3,3′-(3′,6′-bis(acetoxymethoxy)-5-((acetoxymethoxy)carbonyl)-3-oxo-3H-spiro[isobenzofuran-1,9′-xanthene]-2′,7′-diyl)dipropanoate (BCECF-AM). Cells were washed twice with Ammonium free, Na^+-free HEPES (100 mM choline, 50 mM HEPES, 10 mM glucose, 5 mM KCl, 2 mM CaCl2, 1 mM MgCl2, pH 7.4) and incubated in the same buffer for 10 minutes at room temperature to lower intracellular pH. […] Initial rates were plotted as the average 2 or more replicates, and pIC50 values were estimated using GraphPad Prism.

Compound | Human NHE3 pIC50 | IC50
CN(C)[C@H]1Cc2c(Cl)cc(Cl)cc2[C@@H]1Oc1ccc(S(=O)(=O)NCCOCCOCCNC(=O)Nc2ccc(NC(=O)NCCOCCOCCNS(=O)(=O)c3ccc(O[C@H]4c5cc(Cl)cc(Cl)c5C[C@@H]4N(C)C)cc3)cc2)cc1 [Example 2, (S,S)—N,N′-(2,2′-(2,2′-(2,2′-(1,4-phenylenebis(azanediyl))bis(oxomethylene)bis(azanediyl)bis(ethane-2,1-diyl))bis(oxy)bis(ethane-2,1-diyl))bis(oxy)bis(ethane-2,1-diyl))bis(4-((1S,2S)-4,6-dichloro-2-(dimethylamino)-2,3-dihydro-1H-inden-1-yloxy)benzenesulfonamide)] | C (NHE3 pIC50 >7) | –
NC(CCC(=O)NCCOCCOCCOCCNS(=O)(=O)c1ccc(O[C@H]2c3ccccc3C[C@@H]2N2CCCCC2)cc1)(CCC(=O)NCCOCCOCCOCCNS(=O)(=O)c1ccc(O[C@H]2c3ccccc3C[C@@H]2N2CCCCC2)cc1)CCC(=O)NCCOCCOCCOCCNS(=O)(=O)c1ccc(O[C@H]2c3ccccc3C[C@@H]2N2CCCCC2)cc1 [Example 10, 4-amino-4-(13-oxo-1-(4-((1S,2S)-2-(piperidin-1-yl)-2,3-dihydro-1H-inden-1-yloxy)phenylsulfonamido)-3,6,9-trioxa-12-azapentadecan-15-yl)-N1,N7-bis(2-(2-(2-(2-(4-((1S,2S)-2-(piperidin-1-yl)-2,3-dihydro-1H-inden-1-yloxy)phenylsulfonamido)ethoxy)ethoxy)ethoxy)ethyl)heptanediamide] | – | < 100 nM
O=C(NCCCCNC(=O)NCCOCCOCCNS(=O)(=O)c1ccc(O[C@H]2c3cc(Cl)ccc3C[C@@H]2N2CCCCC2)cc1)NCCOCCOCCNS(=O)(=O)c1ccc(O[C@H]2c3cc(Cl)ccc3C[C@@H]2N2CCCCC2)cc1 [Example 18] | – | < 100 nM
N[C@@H]1CCCN([C@H]2Cc3ccccc3[C@@H]2Oc2ccc(S(=O)(=O)NCCOCCOCCNC(=O)NCCCCNC(=O)NCCOCCOCCNS(=O)(=O)c3ccc(O[C@H]4c5ccccc5C[C@@H]4N4CCC[C@@H](N)C4)cc3)cc2)C1 [Example 28] | – | 100 to 10000 nM
O=C(NCCCCNC(=O)NCCOCCOCCNS(=O)(=O)c1ccc(O[C@H]2c3ccccc3C[C@@H]2N2CC[C@@H](O)C2)cc1)NCCOCCOCCNS(=O)(=O)c1ccc(O[C@H]2c3ccccc3C[C@@H]2N2CC[C@@H](O)C2)cc1 [Example 31] | – | < 100 nM
